This passage reports TGI results from PubChem BioAssay (NCI).

Test systems include SNB-75 CNS; SW-620 colon; MOLT-4 leukemia; SR leukemia; 786-0 renal; HS 578T breast; NCI-H23 lung; SNB-19 CNS; OVCAR-4 ovarian; MDA-N; PC-3 prostate.
Experiment in all cases: inhibition of tumour cell growth, NCI panel, 48 h

Molecules are shown by their SMILES.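 Dose response: 5 concentrations. Exposure: 48 h. Format: 96-well plates. Endpoint: linear interpolation; highest concentration if not reached. At the TGI there is no net growth.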

Regarding `Cc1ccc(C(=O)c2[nH]c(Nc3cc(C)ccn3)c(C(=S)Nc3ccccc3)c2N)cc1`, the TGI with SNB-75 CNS, in the assay with SW-620 colon, with MOLT-4 leukemia, in the assay on SR leukemia, with 786-0 renal and with HS 578T breast was over 100 µM throughout. For the same compound, the TGI in the assay on NCI-H23 lung, in the assay with SNB-19 CNS, with OVCAR-4 ovarian and with MDA-N was over 100 µM in each case.
Regarding `NS(=O)(=O)c1nnc(NSc2ccc([N+](=O)[O-])cc2)s1`, the TGI in the assay on SW-620 colon, in the assay with MOLT-4 leukemia, in the assay on SR leukemia, in the assay with 786-0 renal, with HS 578T breast and with NCI-H23 lung was over 100 µM throughout. Besides, the TGI with SNB-19 CNS, in the assay with OVCAR-4 ovarian and with MDA-N was over 100 µM in each case.
For `CCN(C(=O)N[C@H](C(=O)N[C@@H](C)C(=O)OC)C(C)C)c1ccccc1`, the TGI was over 100 µM with SNB-75 CNS; over 100 µM in the assay with SW-620 colon; over 100 µM in the assay with MOLT-4 leukemia; over 100 µM with SR leukemia; 92.4 µM with 786-0 renal; over 100 µM in the assay on HS 578T breast. Also, the TGI in the assay with NCI-H23 lung, with SNB-19 CNS, with PC-3 prostate, with OVCAR-4 ovarian and with MDA-N was over 100 µM each time.
With `C[C@@H]1C(=O)CC2(O)[C@@]13C[C@@H](OC(=O)[C@@H]3O)[C@@H](C)[C@@]21COC1=O` (stereo partly drawn), the TGI with SNB-75 CNS, with SW-620 colon, with MOLT-4 leukemia, in the assay on SR leukemia, in the assay with 786-0 renal and in the assay with HS 578T breast was over 100 µM in each case. In addition, the TGI in the assay on NCI-H23 lung, with SNB-19 CNS, in the assay on PC-3 prostate, in the assay on OVCAR-4 ovarian and in the assay with MDA-N was over 100 µM throughout.
In the case of `CCOC(=O)Cc1nn2c(=O)cc(C)nc2s1`, the TGI in the assay with SNB-75 CNS, with SW-620 colon, in the assay with MOLT-4 leukemia, in the assay with SR leukemia, in the assay on 786-0 renal and with HS 578T breast was over 100 µM throughout. Moreover, the TGI in the assay on NCI-H23 lung, with SNB-19 CNS, in the assay with PC-3 prostate, in the assay on OVCAR-4 ovarian and in the assay on MDA-N was over 100 µM each time.
Turning to `CC(C)(C)OC(=O)c1ccc(NCc2cc(O)ccc2O)cc1`, the TGI in the assay with SNB-75 CNS was 18.4 µM; in the assay with SW-620 colon it was 14.5 µM; with MOLT-4 leukemia it was 11.2 µM; in the assay on SR leukemia, over 34.5 µM; in the assay on 786-0 renal, 5.38 µM; in the assay with HS 578T breast it was 18.6 µM. Besides, the TGI in the assay with NCI-H23 lung was found to be 16.8 µM; with SNB-19 CNS, 38.8 µM; in the assay with PC-3 prostate it was 3.75 µM; in the assay with OVCAR-4 ovarian, 5.59 µM; in the assay on MDA-N, 16.3 µM.
In the case of `C=C1CC=CC(C)(C)C1C/C=C(\C)C(O)CBr` (stereo not drawn), the TGI in the assay on SW-620 colon was 97.4 µM; in the assay on MOLT-4 leukemia, over 100 µM; in the assay with SR leukemia, 88.5 µM; with 786-0 renal it was over 100 µM; with HS 578T breast, over 100 µM; in the assay with NCI-H23 lung it was over 100 µM. Moreover, the TGI with SNB-19 CNS, in the assay on PC-3 prostate, in the assay on OVCAR-4 ovarian and with MDA-N was over 100 µM throughout.
Consider `COC(=O)C1=C(C)N2[C@H](C(=O)O)CS[C@@]2(C)[C@H](C(=O)OC)[C@H]1c1cccc([N+](=O)[O-])c1`, for which the TGI with SNB-75 CNS, in the assay on SW-620 colon, with MOLT-4 leukemia, in the assay on SR leukemia, with 786-0 renal and with HS 578T breast was over 100 µM throughout. Moreover, the TGI in the assay with NCI-H23 lung, with SNB-19 CNS, in the assay with PC-3 prostate, with OVCAR-4 ovarian and in the assay on MDA-N was over 100 µM in each case.
For `COc1ccc(N2C(=O)C3c4[nH]c5ccccc5c4C4C(C)CCCC4C3C2=O)cc1` (stereo not drawn), the TGI with SNB-75 CNS was over 77 µM; with SW-620 colon it was over 100 µM; with MOLT-4 leukemia it was over 100 µM; with SR leukemia, over 46.8 µM; in the assay with 786-0 renal, over 63.5 µM; in the assay on HS 578T breast, 96 µM. Further, the TGI with NCI-H23 lung is over 100 µM; in the assay with SNB-19 CNS, over 100 µM; in the assay on PC-3 prostate, over 100 µM; with OVCAR-4 ovarian it was over 100 µM; in the assay with MDA-N, 18.3 µM.
Consider `COc1cc(OC)c(C2c3cc4c(cc3OC(N3CCOCC3)C2C)OCO4)c(OC)c1` (stereo not drawn), for which the TGI was 93.2 µM in the assay on SNB-75 CNS; over 100 µM in the assay with SW-620 colon; over 100 µM in the assay on MOLT-4 leukemia; over 100 µM in the assay on SR leukemia; over 100 µM in the assay with 786-0 renal; 20.5 µM with HS 578T breast. The TGI with NCI-H23 lung, in the assay with SNB-19 CNS, in the assay with PC-3 prostate and with MDA-N was over 100 µM throughout.
Take `CC(O)(C(=O)N(O)c1ccc(Cl)cc1)c1ccc(Cl)cc1` (stereo not drawn): the TGI was over 100 µM in the assay with SW-620 colon; 42.9 µM with MOLT-4 leukemia; 36.1 µM in the assay on SR leukemia; over 100 µM with 786-0 renal; 62.4 µM with HS 578T breast; 59.7 µM in the assay with NCI-H23 lung. The TGI with SNB-19 CNS was over 100 µM; in the assay with PC-3 prostate it was 73 µM; with OVCAR-4 ovarian, over 100 µM; in the assay on MDA-N, over 100 µM.
On to `Cc1cc2c(cc1Cl)SC(NNc1cnc3ccccc3n1)=NS2(=O)=O`, for which the TGI in the assay on SNB-75 CNS was over 100 µM; with SW-620 colon it was over 100 µM; with MOLT-4 leukemia, 63.5 µM; in the assay on 786-0 renal it was over 100 µM; in the assay on HS 578T breast, over 100 µM; in the assay on NCI-H23 lung, over 100 µM. In addition, the TGI with SNB-19 CNS, in the assay with PC-3 prostate, in the assay with OVCAR-4 ovarian and with MDA-N was over 100 µM throughout.
Regarding `CCOC(=O)c1c(NC(=S)Nc2ccc(C)cc2)sc2c1CCN(C)C2`, the TGI with SNB-75 CNS was 0.0946 µM; in the assay on MOLT-4 leukemia it was over 100 µM; with 786-0 renal, over 100 µM; in the assay on HS 578T breast, over 100 µM; with NCI-H23 lung, over 100 µM; in the assay with SNB-19 CNS it was over 100 µM. Also, the TGI in the assay on PC-3 prostate and with MDA-N was over 100 µM each time.
